In patent publication US20250188417A1, “CARDIOMYOCYTES AND COMPOSITIONS AND METHODS FOR PRODUCING THE SAME” (President and Fellows of Harvard College, priority 2021, published 2025):
“Also recorded” adds a separate entry of the source.

Experiments:
BJRiPS-CMs = assay: Western blot and densitometry (MDM2, p53, TNNI3) and cell cycle analysis of BJRiPS-derived cardiomyocytes; type: cell-based, human; settings: pifithrin-α 10 μM with Torin1 200 nM for 7 days
Experimental: FIG. 6A provides a schematic showing proposed mechanism of cardiomyocyte maturation. T3, triiodothyronine. […] FIG. 6C provides representative Western blot of MDM2, p53, TNNI3, and β-tubulin from BJRiPS-derived cardiomyocyte lysates treated with control (DMSO), nutlin-3a Å˜24 hours (10 μmol/L), Torin1 Å˜7 days (200 nmol/L), or Torin1 Å˜7 days (200 nmol/L)+nutlin-3a (10 μmol/L) for 24 hours beginning ≈2 days after onset of beating (nutlin-3a was only administered during the first 24 hours of Torin1 treatment). Cells harvested on final day of treatment, BJRiPS-CMs. […] DMSO indicates dimethylsulfoxide; mTOR, mechanistic target of rapamycin; and TNNT2+ BJRiPS-CMs, troponin T2, cardiac type-positive BJ fibroblast-derived RNA-induced pluripotent stem cell-derived cardiomyocytes.
FIG. 14A provides representative western blot of p53, phospho-53, p21 (CDKN1a), GATA4, NKX2.5, and β-tubulin from Gibco iPS-CM lysates treated with 0 (DMSO), 10, 50, or 200 nM Torin1 for 7 days starting ˜2 days after onset of beating. Cells harvested on final day of treatment. FIG. 14B provides cell cycle analysis showing percentage of TNNT2+ BJRiPS-CMs in G0, G1 or S/G2/M phases after treatment with vehicle (DMSO, dimethylsulfoxide), pifithrin-α (10 μM) for 1 week, Torin1 (200 nM) for 7 days or simultaneous treatment with pifithrin-α (10 μM) and Torin1 (200 nM) for 7 days starting ˜2 days after onset of beating. n=3 per group, *p<0.05, **p<0.01, ***p<0.001, ****p<0.0001 by two-way ANOVA with Tukey's multiple comparisons test. FIG. 14C provides representative western blot of p53, TNNI3, p21, and β-tubulin from BJRiPS-derived cardiomyocyte lysates treated with control (DMSO), Torin1 (200 nM), pifithrin-α (10 PM) or Torin1 (200 nM)+pifithrin-α (10 μM) for 7 days beginning ˜2 days after onset of beating. Cells harvested on final day of treatment.

iPSC-CMs [1] = assay: Flow cytometry of marker expression and live cells in iPSC-CMs treated in 3D culture; type: cell-based, human
Experimental: (§1) The UCSD142i-86-1 cell line was used to generate preliminary data. UCSD142i-86-1 cells were differentiated into cardiomyocytes according to previously published protocols (9) adapted to three-dimensional culture in the laboratory. Two days after onset of beating (around day 9 of differentiation), cardiomyocytes were treated with vehicle (DMSO) or different concentrations of quercetin for different time periods. Cells were harvested for qPCR, western, or flow cytometry at different time points.

iPSC-CMs [2] = assay: qPCR of PPARGC1a mRNA in iPSC-CMs treated in 3D culture; type: cell-based, human; settings: 200 μM for 3 days, FIG. 5
Experimental: as §1

senescent tumor cells = settings: literature reference; cited from earlier work
[3] = treatment of iPSC-CMs in 3D culture

| SMILES | effects of Torin1 (cell cycle, TNNI3) (BJRiPS-CMs) | percentage of live cells (iPSC-CMs [1]; 200 μM, 2 or 5 day treatment, 3D culture, flow cytometry, FIG. 4A) | percentage of TNNT2+ iPSC-CMs expressing Kir2.1 (iPSC-CMs [1]; 3D culture, flow cytometry, FIG. 2E / FIG. 3A) | mean fluorescence intensity (MFI) of Kir2.1 (iPSC-CMs [1]; 3D culture, flow cytometry, FIG. 2F / FIG. 3B) | % of p53+ TNNT2+ iPSC-CMs (iPSC-CMs [1]; 3D culture, flow cytometry, FIG. 2G / FIG. 3C) | mean fluorescence intensity of p53 (iPSC-CMs [1]; 3D culture, flow cytometry, FIG. 3D) | iPSC-CM maturation (iPSC-CMs [1]; 3D suspension culture, preliminary data) | percentage of TNNT2+ cells out of live cells (cardiomyocytes) (iPSC-CMs [1]; 2 day treatment at 20 or 200 μM, 3D culture, flow cytometry, FIG. 4B) | expression of Kir2.1 (iPSC-CMs [1]; [3]) | expression of p53 (iPSC-CMs [1]; [3]) | mRNA expression of PPARGC1a (iPSC-CMs [2]) | apoptosis in senescent tumor cells (senescent tumor cells) |
| --- | --- | --- | --- | --- | --- | --- | --- | --- | --- | --- | --- | --- |
| Cc1ccc(C(=O)Cn2c3c(sc2=N)CCCC3)cc1 [pifithrin-α] | inhibited |  |  |  |  |  |  |  |  |  |  |  |
| O=c1c(O)c(-c2ccc(O)c(O)c2)oc2cc(O)cc(O)c12 [quercetin] |  | decreases | increases | increases | increases | increases | can enhance | increases | increases | increases | increases; also recorded: significantly increased | can induce apoptosis |
